Assay results as given in patent publication US20080020413A1, “CRYSTALLINE VISFATIN AND METHODS THEREFOR” (Columbia University, priority 2006, published 2008).

Columns and labels:
[1] = biological target: T1, NMPRTase (Homo sapiens, UniProt P43490); experiment: NMPRTase coupled-enzyme spectrometric assay; assay type: biochemical; conditions: FIG. 5; Vmax=kcat([E]-[I])
T1 construct: Full-length human and murine NMPRTase (residues 1-491) was sub-cloned into the pET26b vector; made in house; host or cells: E. coli (pET26b vector)
Description: The catalytic activity of NMPRTase was determined using a coupled-enzyme spectrometric assay, following a published protocol (Revollo et al., 2004). Briefly, the NMN product of NMPRTase is converted to NAD^+ with the enzyme NMN/NAMN adenylyltransferase (NMNAT), and NAD^+ is then reduced to NADH by alcohol dehydrogenase (Sigma) using ethanol as the substrate. By monitoring the appearance of NADH at 340 nm, the activity of NMPRTase can be determined. […] The reaction buffer contains 50 mM Tris (pH 7.5), 0.4 mM PRPP, various concentrations of NM (or NA), 2.5 mM ATP, 12 mM MgCl2, 1.5% ethanol, 10 mM semicarbazide (to remove the acetaldehyde product of ethanol oxidation), 0.02% BSA, 10 mg/ml NMNAT, 30 mg/ml ADH, and 0.5 mM NMPRTase. The reactions are carried out at room temperature.

[2] = system: NAPRTases; conditions: cited from earlier work
[3] = system: tumor cells; conditions: cited from earlier work
[4] = system: normal cells; conditions: cited from earlier work
[5] = system: renal cell carcinoma; conditions: mouse renal cell carcinoma model; cited from earlier work

T1 sequence (P43490 whole entry, the tested form may be a part): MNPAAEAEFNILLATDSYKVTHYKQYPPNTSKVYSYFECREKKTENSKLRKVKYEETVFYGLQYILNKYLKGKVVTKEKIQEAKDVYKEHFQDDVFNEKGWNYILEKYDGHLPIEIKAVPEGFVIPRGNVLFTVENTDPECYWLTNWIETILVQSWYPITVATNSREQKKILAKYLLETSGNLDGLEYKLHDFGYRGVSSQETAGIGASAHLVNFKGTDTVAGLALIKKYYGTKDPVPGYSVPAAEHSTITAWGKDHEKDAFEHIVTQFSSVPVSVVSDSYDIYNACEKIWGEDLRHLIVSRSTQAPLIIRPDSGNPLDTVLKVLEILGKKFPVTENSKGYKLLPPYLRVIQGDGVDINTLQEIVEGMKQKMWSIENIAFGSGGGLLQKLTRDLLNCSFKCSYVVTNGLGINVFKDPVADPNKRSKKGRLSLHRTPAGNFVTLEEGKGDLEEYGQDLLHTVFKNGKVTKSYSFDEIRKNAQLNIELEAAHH

relationship between FK866 concentration and Vmax [1]: linear relationship
Compound: O=C(/C=C/c1cccnc1)NCCCCC1CCN(C(=O)c2ccccc2)CC1 [FK866, (E)-N-[4-(1-benzoylpiperidin-4-yl)butyl]-3-(pyridin-3-yl)acrylamide]
inhibition of NAPRTases [2]: does not inhibit | apoptosis [3]: induces apoptosis | intracellular NAD+ levels [3]: depletion of intracellular NAD^+ levels | toxicity to normal cells [4]: little toxicity | anti-angiogenic effects [5]: potent anti-angiogenic effects
